Experimental data as given in patent US7087623B2, “Thiazole and other heterocyclic ligands for mammalian dopamine, muscarinic and serotonin receptors and transporters, and methods of use thereof” (Sepracor Inc., priority 2001, dated 2006).
Like-named read-outs stand apart in the source and are kept apart here.

Assays:
[1] = biological target: T1, human serotonin 5-HT2A receptor (Homo sapiens, UniProt P28223); experiment: Radioligand binding assay, human 5-HT2A receptors ([3H]Ketanserin)
T1 construct: expressed in transfected cells; host or cells: CHO-K1
T1 sequence (P28223 whole entry): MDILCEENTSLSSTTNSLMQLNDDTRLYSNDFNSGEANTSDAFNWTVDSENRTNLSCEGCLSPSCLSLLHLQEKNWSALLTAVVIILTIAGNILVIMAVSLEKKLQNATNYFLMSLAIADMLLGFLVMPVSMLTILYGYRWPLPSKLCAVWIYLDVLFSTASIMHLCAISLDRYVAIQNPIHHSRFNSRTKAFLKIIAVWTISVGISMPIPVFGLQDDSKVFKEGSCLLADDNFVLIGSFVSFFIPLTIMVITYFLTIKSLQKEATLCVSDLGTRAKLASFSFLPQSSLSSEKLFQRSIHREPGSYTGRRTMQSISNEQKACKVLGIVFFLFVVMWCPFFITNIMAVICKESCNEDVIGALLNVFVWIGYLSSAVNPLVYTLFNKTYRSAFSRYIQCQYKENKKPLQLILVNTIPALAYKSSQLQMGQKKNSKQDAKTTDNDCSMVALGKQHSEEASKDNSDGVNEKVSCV

[2] = biological target: T2, human serotonin 5-HT6 receptor (Homo sapiens, UniProt P50406); experiment: Radioligand binding assay, human 5-HT6 receptors ([3H]LSD)
T2 construct: expressed in transfected cells; host or cells: HeLa/E6-7
T2 sequence (P50406 whole entry): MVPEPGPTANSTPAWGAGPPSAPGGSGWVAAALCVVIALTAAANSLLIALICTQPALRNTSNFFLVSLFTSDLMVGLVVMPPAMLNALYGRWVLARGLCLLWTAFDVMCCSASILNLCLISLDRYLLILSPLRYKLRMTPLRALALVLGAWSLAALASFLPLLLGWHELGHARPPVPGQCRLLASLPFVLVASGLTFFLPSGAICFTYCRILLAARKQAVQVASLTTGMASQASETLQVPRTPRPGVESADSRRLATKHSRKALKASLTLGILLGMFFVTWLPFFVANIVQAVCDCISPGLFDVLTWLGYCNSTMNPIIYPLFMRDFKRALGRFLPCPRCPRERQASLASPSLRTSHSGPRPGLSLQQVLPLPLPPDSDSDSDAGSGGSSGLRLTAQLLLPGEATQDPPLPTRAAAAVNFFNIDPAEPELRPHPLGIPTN
Procedure, shortened: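 Membranes from HeLa/E6–7 cells stably expressing human 5-HT6, in modified Tris-HCl pH 7.4, incubated (30 μg) with 1.5 nM [3H]LSD for 120 min at 37° C. Non-specific binding defined with 5 μM 5-HT; bound ligand measured by filtration and counting.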

[3] = test system: Wistar rats; experiment: Acute toxicity assessment (maximum tolerated dose) in Wistar rats, i.v.; type: in vivo; conditions: observed 72 hours
Experimental: An in vivo evaluation was carried out to determine the maximum tolerated dose of certain compounds in Wistar rats (male and female weighing ˜[…]). The compounds were administered i.v. and the animals were then observed for 72 hours. Compounds 37, 93, and 112 were solubilized in 5% dextrose (w/v)/polyethylene glycol 400 (4:1 v/v).

[4] = human 5-HT2a, Example 16 table, read-out: IC50 (nM) 5-HT2a
[5] = human 5-HT6, Example 16 table, read-out: IC50 (nM) 5-HT6
[6] = human, Example 100 table, read-out: IC50 (nM) 5-HT2A
[7] = human, Example 100 table, read-out: IC50 (nM) 5-HT6

| Structure (SMILES) | IC50 [1, 4] [nM] | IC50 [2, 5] [nM] | IC50 [2, 7] [nM] | other results |
| --- | --- | --- | --- | --- |
| CN1CCN(c2nc(C3(c4cccc(Cl)c4)CCOCC3)cs2)CC1 [Compound 63] | > 1000 | < 100 |  |  |
| CN1CCN(c2nc(C3(c4ccccc4)CCOCC3)cs2)CC1 [Compound 59] |  |  |  | IC50 ([1]; IC50 (nM) 5-HT2a, human 5-HT2a, Example 16 table): > 1000 nM; IC50 ([2]; IC50 (nM) 5-HT6, human 5-HT6, Example 16 table): < 100 nM |
| CN1CCN(c2nc(C3(c4ccccc4F)CCCC3)cs2)CC1 [Compound 93] | < 1000 | < 100 |  | Tolerability and mortality after 72 h ([3]; 60 mg/kg i.v.): well tolerated by the animals and did not cause any mortality |
| CN1CCN(c2nc(C3(c4csc5ccc(Cl)cc45)CCOCC3)cs2)CC1 [Compound 36] | > 1000 | < 100 |  |  |
| CN1CCN(c2nc(C3(c4ccccc4F)CCCCC3)cs2)CC1 [Compound 83] | > 1000 | < 100 |  |  |
| CN1CCCC1CCNc1nc(C2(c3ccccc3F)CCCCC2)cs1 (single isomer, unassigned) [Compound 130, {4-[1-(2-fluorophenyl)-cyclohexyl]-thiazol-2-yl}-[2-(1-methyl-pyrrolidin-2-yl)-ethyl]-amine] |  |  | < 100 | IC50 [1, 6]: < 100 nM |
| CN1CCN(c2nc(C3(c4ccccc4F)CCOCC3)cs2)CC1 [Compound 112] |  |  | < 100 | Tolerability and mortality after 72 h ([3]; 30 mg/kg i.v.): well tolerated by the animals and did not cause any mortality |
| CN1CCCC1CCNc1nc(C2(c3ccccc3F)CCCCC2)cs1 (racemic) [Compound 128, {4-[1-(2-fluorophenyl)-cyclohexyl]-thiazol-2-yl}-[2-(1-methyl-pyrrolidin-2-yl)-ethyl]-amine] |  |  | < 100 | IC50 [1, 6]: < 100 nM |
| Clc1ccc(C2(c3csc(N4CCNCC4)n3)CCOCC2)cc1 [Compound 37] | < 1000 | < 100 |  | Tolerability and mortality after 72 h ([3]; 60 mg/kg i.v.): well tolerated by the animals and did not cause any mortality |
